For this test, the target named is T1, human isoforms of GABAA (α3ß2γ2) receptors (Homo sapiens, UniProt P18507+P34903).
T1 construct: expressed in transfected cells
Briefly: Potentiation of GABA-evoked currents at GABAA (α3β2γ2) receptors, automated patch-clamp (QPatch), Example B1. Format: cell-based. As to conditions: for Emax: Emax of potentiation, read-out: Max %. How it is done:
The ability of compounds exemplified above to potentiate the effect of GABA on GABAA receptors (α3β2γ2) was determined using one or more of the methods described below.
Ltk cells stably expressing the human isoforms of GABAA (α3ß2γ2) receptors were used together with submaximal GABA concentrations to investigate the modulatory effects of the test items. Cells were incubated at 37° C. in a humidified atmosphere with 5% CO2 (rel. humidity about 95%). The cells were continuously maintained in and passaged in sterile culture flasks containing a 1:1 mixture of Dulbecco's modified eagle medium and nutrient mixture D-MEM/F-12 (1×, liquid, with L-Glutamine), supplemented with 10% fetal bovine serum and 1.0% Penicillin/Streptomycin solution. The complete medium as indicated above was supplemented with neomycin. In general, cells were passaged at a confluence of about 80 to 90%. For electrophysiological measurements cells were harvested at a confluence of about 80 to 90% from sterile culture flasks containing culture complete medium. Cells were transferred as suspension in PBS to the QPatch 16X or QPatch HTX system to the centrifuge/washer directly. Expression of GABA receptor was induced by adding Dexamethasone to the cells for 24 to 48 h before experimentation.
Modulatory effects of the compounds of this disclosure were investigated using cells stably transfected with GABA-activated channels of the GABAA (α3ß2γ2) subtype together with submaximal GABA concentrations. Expression of GABA receptor were induced by adding Dexamethasone to the cells for 24 to 48 h before experimentation. In general, cells were passaged at a confluence of about 80 to 90%. For electrophysiological measurements cells were harvested at a confluence of about 80 to 90% from sterile culture flasks containing culture complete medium. Cells were transferred as suspension in PBS to the QPatch 16X or QPatch HTX system to the centrifuge/washer directly. Cells were incubated at 37° C. in a humidified atmosphere with 5% CO2 (rel. humidity about 95%). The cells were continuously maintained in and passaged in sterile culture flasks containing a 1:1 mixture of Dulbecco's modified eagle medium and nutrient mixture D-MEM/F-12 (1×, liquid, with L-Glutamine), supplemented with 10% foetal bovine serum and 1.0% Penicillin/Streptomycin solution and neomycin. The 1× bath solution was made at least every 5 days out of a sterile 10× bath solution, which had been prepared prior to the experimental start of the present study and stored at 1° C. to 9° C. The final bath solution included Sodium Chloride 137 mM, Potassium Chloride 4 mM, Calcium Chloride 1.8 mM, Magnesium Chloride 1 mM, HEPES 10 mM, D-Glucose 10 mM, pH (NaOH) 7.4. The 1× intracellular solution was thawed every day and includes Potassium Chloride 130 mM, Magnesium Chloride 1 mM, Mg-ATP 5 mM, HEPES 10 mM, EGTA 5 Mm, pH (KOH) 7.2. Automated patch-clamping: Cells were transferred as suspension in serum-free medium to the QPatch HTX system and kept in the cell storage tank during experiments. All solutions applied to cells including the intracellular solution were maintained at room temperature (19° C. to 30° C.). After formation of a Gigaohm seal between the patch electrodes and transfected individual Ltk cells were ruptured to assure electrical access to the cell interior (whole-cell patch-configuration). Inward currents were measured upon application of 2.0 μM GABA to patch-clamped cells for 4 s. During the entire experiment the cells were voltage-clamped at a holding potential of −80 mV. For the analysis of test items, GABAA receptors were stimulated by 2.0 μM GABA and test item combinations described below. Thirty-second prewash steps with test items was performed in between two agonist applications. […]
(In general: In patch-clamp work, channel activity is measured electrically.)

Where [1] appears, read: Ltk cells expressing GABAA α3β2γ2, 2.0 μM GABA, whole-cell, holding potential −80 mV.

pEC50: −log10 of the molar value. Read-outs that look alike come from different tables or passages of the source. Some results are limits rather than exact numbers.

For 23 compounds, EC50 and Emax results are on record in US20260042763A1, “PE[…] POSITIVE […] THE TREATMENT OF IRRITABLE BOWEL SYNDROME AND OTHER AILMENTS OF THE PERIPHERAL NERVOUS SYSTEM” (The Johns Hopkins University, priority 2022, published 2026).

The pEC50 is the EC50 on a negative log10 scale, so that one unit is a factor of ten.

T1 sequence (P34903 29-492): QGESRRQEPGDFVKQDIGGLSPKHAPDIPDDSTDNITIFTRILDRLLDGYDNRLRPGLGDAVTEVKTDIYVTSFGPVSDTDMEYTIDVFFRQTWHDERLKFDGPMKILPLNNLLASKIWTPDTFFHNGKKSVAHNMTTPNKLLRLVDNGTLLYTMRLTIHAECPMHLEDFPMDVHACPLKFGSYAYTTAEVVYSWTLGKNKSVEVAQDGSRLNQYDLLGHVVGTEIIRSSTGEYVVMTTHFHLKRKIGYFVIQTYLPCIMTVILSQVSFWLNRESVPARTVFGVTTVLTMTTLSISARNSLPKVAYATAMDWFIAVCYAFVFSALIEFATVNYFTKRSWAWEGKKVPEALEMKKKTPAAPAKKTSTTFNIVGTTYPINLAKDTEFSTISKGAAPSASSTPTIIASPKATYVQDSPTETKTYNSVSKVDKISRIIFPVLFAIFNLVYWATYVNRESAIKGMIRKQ
T1 sequence (P47870 25-512 partner limits assumed): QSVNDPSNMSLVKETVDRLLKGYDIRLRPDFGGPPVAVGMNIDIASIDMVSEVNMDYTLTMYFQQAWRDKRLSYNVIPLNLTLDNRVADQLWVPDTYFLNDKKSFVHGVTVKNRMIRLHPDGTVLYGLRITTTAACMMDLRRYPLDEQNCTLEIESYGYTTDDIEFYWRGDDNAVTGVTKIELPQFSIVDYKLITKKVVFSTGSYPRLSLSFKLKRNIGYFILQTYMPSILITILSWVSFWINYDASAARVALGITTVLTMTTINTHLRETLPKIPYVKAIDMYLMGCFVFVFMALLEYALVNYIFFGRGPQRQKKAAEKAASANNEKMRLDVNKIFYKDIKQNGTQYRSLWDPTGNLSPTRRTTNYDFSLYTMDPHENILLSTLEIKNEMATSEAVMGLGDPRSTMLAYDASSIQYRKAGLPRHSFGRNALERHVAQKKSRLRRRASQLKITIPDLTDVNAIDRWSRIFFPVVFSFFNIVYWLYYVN
T1 sequence (P18507 40-475): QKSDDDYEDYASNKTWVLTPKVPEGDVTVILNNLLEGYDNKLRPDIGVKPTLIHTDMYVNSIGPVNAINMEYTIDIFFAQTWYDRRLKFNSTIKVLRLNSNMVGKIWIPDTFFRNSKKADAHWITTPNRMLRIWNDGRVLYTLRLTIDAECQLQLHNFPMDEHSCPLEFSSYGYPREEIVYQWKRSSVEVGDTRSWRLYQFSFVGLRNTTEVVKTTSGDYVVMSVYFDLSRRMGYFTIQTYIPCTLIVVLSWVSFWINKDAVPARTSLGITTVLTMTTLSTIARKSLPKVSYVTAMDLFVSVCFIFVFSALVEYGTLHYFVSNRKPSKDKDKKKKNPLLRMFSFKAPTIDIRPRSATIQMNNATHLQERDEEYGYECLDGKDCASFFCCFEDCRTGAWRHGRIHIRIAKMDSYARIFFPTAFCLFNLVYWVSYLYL

As for `CC1N=C(c2ccccc2F)c2cc(Cl)ccc2-n2cc(C(=O)O)nc21` (racemic) [Compound 101, 12-Chloro-9-(2-fluorophenyl)-7-methyl-2,5,8-triazatricyclo[8.4.0.0^2,6] tetradeca-1 (10),3,5,8,11,13-hexaene-4-carboxylic acid], the pEC50 is more than 7.30. Also, under setting [1], the Emax is more than 100%.

In the case of `CC(C)CC1N=C(c2ccccc2F)c2cc(Cl)ccc2-n2cc(C(=O)O)nc21` (centres unmarked) [Compound 102, 8-chloro-6-(2-fluorophenyl)-4-isobutyl-4H-imidazo[1,2-a][1,4]benzodiazepine-2-carboxylic acid], the Emax under setting [1] was in the range of 50 to 100%. In addition, the pEC50 (Ltk cells expressing GABAA α3β2γ2, 2.0 μM GABA, whole-cell, holding potential −80 mV, read-out: EC50) is less than 7.00.

With `O=C(O)c1cn2c(n1)CN=C(c1ccccc1F)c1cc(Cl)c(F)cc1-2` [Compound 201, 8-chloro-9-fluoro-6-(2-fluorophenyl)-4H-imidazo[1,2-a][1,4]benzodiazepine-2-carboxylic acid], the negative-log EC50 (pEC50) was more than 7.30. For the same compound, the Emax under setting [1] was more than 100%.

Turning to `C[N+](C)(C)Cc1cn2c(n1)CN=C(c1ccccc1F)c1cc(Cl)ccc1-2` [Compound 202, {[12-chloro-9-(2-fluorophenyl)-2,5,8-triazatricyclo[8.4.0.0^2,6]tetradeca-1 (10),3,5,8,11,13-hexaen-4-yl]methyl}trimethylazanium chloride], the negative logarithm of the EC50 (pEC50) is more than 7.30. Under setting [1], the Emax lay in the range of 50 to 100%.

For `O=C(O)c1cn2c(n1)CN=C(c1ccccc1F)c1cc(Cl)cc(F)c1-2` [Compound 203, 12-Chloro-14-fluoro-9-(2-fluorophenyl)-2,5,8-triazatricyclo[8.4.0.0^2,6] tetradeca-1 (10),3,5,8,11,13-hexaene-4-carboxylic acid], the negative-log EC50 (pEC50) is 7.00 to 7.30. For the same compound, the Emax under setting [1] is 50 to 100%.

As for `Cc1ccccc1C1=NCc2nc(C(=O)O)cn2-c2ccc(Cl)cc21` [Compound 204, 8-chloro-6-(o-tolyl)-4H-imidazo[1,2-a][1,4]benzodiazepine-2-carboxylic acid], the pEC50 was more than 7.30. Under setting [1], the Emax was more than 100%.

Consider `COc1cc2c(cc1Cl)C(c1ccccc1F)=NCc1nc(C(=O)O)cn1-2` [Compound 205, 8-chloro-6-(2-fluorophenyl)-9-methoxy-4H-imidazo[1,2-a][1,4]benzodiazepine-2-carboxylic acid], for which the negative-log EC50 (pEC50) is more than 7.30. Also, under setting [1], the Emax is more than 100%.

As to `O=C(O)c1cn2c(n1)CN=C(c1ccccc1Br)c1cc(Cl)ccc1-2` [Compound 206, 6-(2-bromophenyl)-8-chloro-4H-imidazo[1,2-a][1,4]benzodiazepine-2-carboxylic acid], the pEC50 is more than 7.30. Further, the Emax under setting [1] lay within 50 to 100%.

For the compound `O=C(O)c1cn2c(n1)CN=C(c1ccccc1F)c1cc(Br)ccc1-2` [Compound 207, 8-bromo-6-(2-fluorophenyl)-4H-imidazo[1,2-a][1,4]benzodiazepine-2-carboxylic acid], the pEC50 is more than 7.30. The Emax under setting [1] is more than 100%.

As for `CS(=N)(=O)CCNC(=O)c1cn2c(n1)CN=C(c1ccccc1F)c1cc(Cl)ccc1-2` (centres unmarked) [Compound 208, 8-chloro-6-(2-fluorophenyl)-N-[2-(methylsulfonimidoyl)ethyl]-4H-imidazo[1,2-a][1,4]benzodiazepine-2-carboxamide], the pEC50 is more than 7.30. For the same compound, under setting [1], the Emax is 50 to 100%.

Consider `CP(C)(=O)CCCNC(=O)c1cn2c(n1)CN=C(c1ccccc1F)c1cc(Cl)ccc1-2` [Compound 209, 8-chloro-N-(3-dimethylphosphorylpropyl)-6-(2-fluorophenyl)-4H-imidazo[1,2-a][1,4]benzodiazepine-2-carboxamide], for which the negative logarithm of the EC50 (pEC50) is more than 7.30. Moreover, under setting [1], the Emax lay within 50 to 100%.

Regarding `NCCNC(=O)c1cn2c(n1)CN=C(c1ccccc1F)c1cc(Cl)ccc1-2` [Compound 210, N-(2-aminoethyl)-8-chloro-6-(2-fluorophenyl)-4H-imidazo[1,2-a][1,4]benzodiazepine-2-carboxamide], the negative-log EC50 (pEC50) was more than 7.30. Besides, the Emax under setting [1] was more than 100%.

Turning to `COCCOCCOCCOCCNC(=O)c1cn2c(n1)CN=C(c1ccccc1F)c1cc(Cl)ccc1-2` [Compound 211, 8-chloro-6-(2-fluorophenyl)-N-[2-[2-[2-(2-methoxyethoxy)ethoxy]ethoxy]ethyl]-4H-imidazo[1,2-a][1,4]benzodiazepine-2-carboxamide], the negative logarithm of the EC50 (pEC50) was 7.00 to 7.30. Besides, under setting [1], the Emax is more than 100%.

Turning to `O=C(O)c1nc2n(c1C1CC1)-c1ccc(Cl)cc1C(c1ccccc1F)=NC2` [Compound 212, 8-chloro-1-cyclopropyl-6-(2-fluorophenyl)-4H-imidazo[1,2-a][1,4]benzodiazepine-2-carboxylic acid], the negative-log EC50 (pEC50) was less than 7.00. Also, the Emax under setting [1] was more than 100%.

Take `Cc1c(C(=O)O)nc2n1-c1ccc(Cl)cc1C(c1ccccc1F)=NC2` [Compound 213, 8-chloro-6-(2-fluorophenyl)-1-methyl-4H-imidazo[1,2-a][1,4]benzodiazepine-2-carboxylic acid]: the pEC50 is more than 7.30. For the same compound, the Emax under setting [1] is more than 100%.

As to `O=C(O)c1cn2c(n1)CN=C(c1c(F)cccc1F)c1cc(Cl)ccc1-2` [Compound 214, 8-chloro-6-(2,6-difluorophenyl)-4H-imidazo[1,2-a][1,4]benzodiazepine-2-carboxylic acid], the negative-log EC50 (pEC50) was more than 7.30. In addition, the Emax under setting [1] was 50 to 100%.

Turning to `O=C(O)c1cn2c(n1)CN=C(c1cccc(F)c1F)c1cc(Cl)ccc1-2` [Compound 215, 8-chloro-6-(2,3-difluorophenyl)-4H-imidazo[1,2-a][1,4]benzodiazepine-2-carboxylic acid], the negative logarithm of the EC50 (pEC50) was more than 7.30. Under setting [1], the Emax was more than 100%.

In the case of `O=C(O)c1cn2c(n1)CN=C(c1ccc(F)cc1F)c1cc(Cl)ccc1-2` [Compound 216, 8-chloro-6-(2,4-difluorophenyl)-4H-imidazo[1,2-a][1,4]benzodiazepine-2-carboxylic acid], under setting [1], the Emax is less than 50%.

`CCc1c(C(=O)O)nc2n1-c1ccc(Cl)cc1C(c1ccccc1F)=NC2` [Compound 217, 8-chloro-1-ethyl-6-(2-fluorophenyl)-4H-imidazo[1,2-a][1,4]benzodiazepine-2-carboxylic acid]: the negative-log EC50 (pEC50) is more than 7.30. In addition, the Emax under setting [1] was more than 100%.

For `O=C(O)c1cn2c(n1)CN=C(c1cccc(F)c1)c1cc(Cl)ccc1-2` [Compound 218, 8-chloro-6-(3-fluorophenyl)-4H-imidazo[1,2-a][1,4]benzodiazepine-2-carboxylic acid], the pEC50 is less than 7.00. The Emax under setting [1] is more than 100%.

With `O=C(O)c1cn2c(n1)CN=C(c1ccc(F)cc1)c1cc(Cl)ccc1-2` [Compound 219, 8-chloro-6-(4-fluorophenyl)-4H-imidazo[1,2-a][1,4]benzodiazepine-2-carboxylic acid], the Emax under setting [1] lay in the range of 50 to 100%.

On to `O=C(O)c1cn2c(n1)CN=C(c1ccccc1Cl)c1cc(Cl)ccc1-2` [Compound 220, 8-chloro-6-(2-chlorophenyl)-4H-imidazo[1,2-a][1,4]benzodiazepine-2-carboxylic acid], for which the negative logarithm of the EC50 (pEC50) was more than 7.30. Besides, the Emax under setting [1] was more than 100%.

Turning to `O=C(O)c1cn2c(n1)CN=C(c1ccccc1F)c1cc(F)ccc1-2` [Compound 221, 8-fluoro-6-(2-fluorophenyl)-4H-imidazo[1,2-a][1,4]benzodiazepine-2-carboxylic acid], the pEC50 was 7.00 to 7.30. Further, the Emax under setting [1] lay within 50 to 100%.
